Experimental data: patent US11879848B2, “Graphene-based multi-modal sensors” (The Regents of the University of California, priority 2015, dated 2024)

Test system: neonatal rat cardiomyocytes (CM)
Assay: cardiomyocyte contractions registered by PMMA/AuNI/graphene strain sensor in electrophysiological chamber
Format: cell-based
Conditions: 10 μM blebbistatin in the solution around the cells; CM culture on PMMA/AuNI/graphene; room temperature
Protocol: The graphene/metal nanoisland composite film structures can also be deployed in biological settings. For example, the performance of graphene/AuNI sensors in biological settings is tested by culturing neonatal rat cardiomyocytes (CM) on coverslips that are coated with a composite polymethylmethacrylate (PMMA)/AuNI/graphene film structure.
Using a specialized chamber shown in FIG. 4c and detailed below, reversible changes in the sensor signal that correlated with the spontaneous activity of cardiomyocytes can be detected, as shown in FIG. 4d.
An excitation-contraction uncoupler such as blebbistatin, that inhibits myosin cycling and stops the contractions of the cells, but not the electrical activity, can be used to distinguish whether the signal detected by the strain sensor was related to the contractile or electrical activity of the cells.
Electrophysiology. Neonatal rat ventricular cardiomyocytes were isolated using the neonatal rat cardiomyocyte isolation kit (Worthington) and cultured at 37° C. with 5% CO2. In brief, ventricles were dissected from 1 d-old Hsd:SD rats (Sprague Dawley), then digested overnight at 4° C. with trypsin. Digestion continued the following morning with collagenase for approximately 60 min at 37° C. […]

`Cc1ccc2c(c1)C(=O)C1(O)CCN(c3ccccc3)C1=N2` (stereo not shown) [blebbistatin] was tested, and the “modulations of the sensor signal (contractions of the cells)” value was “No noticeable modulations of the signal”.
